Patent publication US12441736B2, “KIF18A inhibitors” (AMGEN INC., priority 2018, dated 2025)

molecular target: T1, Recombinant human KIF18A (1-467 His-tagged) protein (Homo sapiens, UniProt Q8NI77); assay: KIF18A Enzyme Assay: microtubule-stimulated ATPase activity (ADP-Glo); assay type: biochemical; details: 30 nM KIF18A, 30 μg/mL pig microtubules, 75 μM ATP, ADP-Glo luminescence
T1 construct: Recombinant human KIF18A (1-467 His-tagged) protein; His; made in house
Text: KIF18A Enzyme Assay: Microtubule-stimulated ATPase activity assay is used to measure KIF18A enzyme activity after treatment with compound. Compounds were 2-fold serially diluted in DMSO (Sigma Inc) over 22-point concentration range. Recombinant human KIF18A (1-467 His-tagged) protein was expressed using a baculovirus system and purified by affinity chromatography by Amgen Inc. Concentrations of KIF18A protein, microtubules (MT), and ATP in the reaction were optimized for standardized homogenous enzyme assay using ADP-Glo™ Kinase/ATPase Assay Kit (Promega Inc). The assay measures ADP formed from the ATPase reaction. Prepare reaction buffer [(15 mM Tris, pH 7.5 (Teknova Inc), 10 mM MgCl2 (IT Baker Inc), 0.01% Pluronic F-68 (Life Technologies Inc), 1 μM Taxol (Cytoskeleton Inc), and 30 μg/mL pig microtubules (Cytoskeleton Inc)]. Add compound and KIF18A protein (30 nM) to prepared reaction buffer and incubated for 15 minutes at room temperature, next add ATP (at Kin, 75 μM) to the reaction mixture and incubated for an additional 15 minutes at room temperature. Mix 5 μl of ADP-Glo™ Reagent and 2.5 μl of the reaction mixture and incubate for 40 minutes at room temperature. Add 10 μl ADP-Glo™ Detection Reagent and incubate for 40 minutes at room temperature. Read luminescence using EnVision microplate reader with ultra-luminescence module (Perkin Elmer Inc). Concentration-response curve-fitting and IC50 determination was performed using Genedata Screener Software (Standard 15.0.1, Genedata Inc) with a four-parameter logistic regression fit model.
Table A provides data for compounds exemplified in the present application and priority document thereof, as representative compounds of the present invention, as follows: chemical name (as named by either ACD software or ChemDraw (Professional 15.0)) and biological data (IC50 in μM). Ex. # refers to Example No.

T1 sequence (Q8NI77 1-467): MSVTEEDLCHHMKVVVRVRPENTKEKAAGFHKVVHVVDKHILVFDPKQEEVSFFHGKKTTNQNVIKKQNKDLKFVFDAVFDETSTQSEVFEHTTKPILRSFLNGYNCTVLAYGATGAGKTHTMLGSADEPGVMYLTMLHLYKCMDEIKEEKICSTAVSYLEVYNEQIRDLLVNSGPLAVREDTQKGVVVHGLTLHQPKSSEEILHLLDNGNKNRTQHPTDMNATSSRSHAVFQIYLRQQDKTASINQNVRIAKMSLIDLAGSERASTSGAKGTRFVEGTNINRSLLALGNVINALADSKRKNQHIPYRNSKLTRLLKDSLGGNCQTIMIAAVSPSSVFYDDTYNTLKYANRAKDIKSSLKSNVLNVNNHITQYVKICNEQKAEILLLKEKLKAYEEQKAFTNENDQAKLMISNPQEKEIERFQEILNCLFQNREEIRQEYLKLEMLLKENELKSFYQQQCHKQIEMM
T1 sequence (P02550 whole entry partner): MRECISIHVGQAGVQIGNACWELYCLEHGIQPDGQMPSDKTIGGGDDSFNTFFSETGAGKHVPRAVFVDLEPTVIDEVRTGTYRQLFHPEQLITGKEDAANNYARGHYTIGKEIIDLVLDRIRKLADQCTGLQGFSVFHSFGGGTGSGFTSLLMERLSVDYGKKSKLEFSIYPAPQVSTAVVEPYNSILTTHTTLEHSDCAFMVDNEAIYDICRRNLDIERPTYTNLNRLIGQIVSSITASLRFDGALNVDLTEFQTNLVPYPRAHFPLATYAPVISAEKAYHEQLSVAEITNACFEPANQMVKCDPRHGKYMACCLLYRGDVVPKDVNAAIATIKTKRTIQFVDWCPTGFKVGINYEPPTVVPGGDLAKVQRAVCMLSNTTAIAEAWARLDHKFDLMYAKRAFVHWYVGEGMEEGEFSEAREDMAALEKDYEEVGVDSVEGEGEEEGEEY
T1 sequence (P02554 whole entry partner): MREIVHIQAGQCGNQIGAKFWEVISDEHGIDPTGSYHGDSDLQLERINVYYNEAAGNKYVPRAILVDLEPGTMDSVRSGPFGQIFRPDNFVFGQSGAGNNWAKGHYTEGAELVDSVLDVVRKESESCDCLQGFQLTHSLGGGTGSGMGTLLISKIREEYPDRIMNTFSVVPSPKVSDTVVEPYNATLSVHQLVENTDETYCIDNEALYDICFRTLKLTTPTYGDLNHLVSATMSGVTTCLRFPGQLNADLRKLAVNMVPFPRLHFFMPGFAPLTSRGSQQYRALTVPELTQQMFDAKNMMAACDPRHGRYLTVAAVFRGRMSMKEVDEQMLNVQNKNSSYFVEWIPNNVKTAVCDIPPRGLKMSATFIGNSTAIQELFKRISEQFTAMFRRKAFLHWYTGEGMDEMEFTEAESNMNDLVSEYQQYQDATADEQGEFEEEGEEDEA

In order of rising IC50:
1. O=C(Nc1ccc(NS(=O)(=O)CCO)cc1N1CCC2(CC1)CC2)c1cccc(N2CCC(F)(F)CC2)n1 [Example 248, 6-(4,4-difluoropiperidin-1-yl)-N-(4-((2-hydroxyethyl)sulfonamido)-2-(6-azaspiro[2.5]octan-6-yl)phenyl)picolinamide]  16 nM
2. CC(c1ccc(C(=O)Nc2cccc(N3CCO[C@H](C)C3)n2)c(N2CCC3(CC2)CC3)n1)S(C)(=O)=O (stereo partly drawn) [Example 244, N-(6-((R)-2-methylmorpholino)pyridin-2-yl)-6-(1-(methylsulfonyl)ethyl)-2-(6-azaspiro[2.5]octan-6-yl)nicotinamide]  51.2 nM
3. C[C@@H]1CN(c2cccc(NC(=O)c3ccc(NC(C)(CO)CO)nc3N3CCC4(CC3)CC4)n2)CCO1 [Example 147, (R)-6-((1,3-dihydroxy-2-methylpropan-2-yl)amino)-N-(6-(2-methylmorpholino)pyridin-2-yl)-2-(6-azaspiro[2.5]octan-6-yl)nicotinamide]  53.4 nM
4. CC(CO)(CO)Nc1ccc(C(=O)Nc2cccc(N3CCOCC3)n2)c(N2CCC3(CC2)CC3)n1 [Example 148, 2-(6-azaspiro[2.5]oct-6-yl)-6-((1,3-dihydroxy-2-methyl-2-propanyl)amino)-N-(6-(4-morpholinyl)-2-pyridinyl)-3-pyridinecarboxamide]  60.4 nM
5. C[C@@H]1CN(c2cccc(NC(=O)c3ccc(C(C)(O)CO)nc3N3CCC4(CC3)CC4)n2)CCO1 (stereo partly drawn) [Example 166, 6-(1,2-dihydroxypropan-2-yl)-N-(6-((R)-2-methylmorpholino)pyridin-2-yl)-2-(6-azaspiro[2.5]octan-6-yl)nicotinamide]  62.5 nM
6. CC(C)(C)NS(=O)(=O)c1cccc(NC(=O)c2ccc(NC(C)(C)CO)nc2N2CCC3(CC2)CC3)n1 [Example 123, 2-(6-azaspiro[2.5]oct-6-yl)-N-(6-(tert-butylsulfamoyl)-2-pyridinyl)-6-((2-hydroxy-1,1-dimethylethyl)amino)-3-pyridinecarboxamide]  64 nM
7. O=C(Nc1cccc(N2CCOCC2)n1)c1ccc(C(O)(CO)C(F)(F)F)nc1N1CCC2(CC1)CC2 (stereo not shown) [Example 181, N-(6-morpholinopyridin-2-yl)-2-(6-azaspiro[2.5]octan-6-yl)-6-(1,1,1-trifluoro-2,3-dihydroxypropan-2-yl)nicotinamide]  69.9 nM
8. CC(C)(CO)Nc1cccc(NC(=O)c2ccc(NC(C)(C)CO)nc2N2CCC3(CC2)CC3)n1 [Example 162, 2-(6-azaspiro[2.5]octan-6-yl)-6-((1-hydroxy-2-methyl-2-propanyl)amino)-N-(6-((1-hydroxy-2-methyl-2-propanyl)amino)-2-pyridinyl)-3-pyridinecarboxamide]  70.7 nM
9. CC(C)(C)NS(=O)(=O)c1cccc(NC(=O)c2ncc(NC3(CO)CC3)nc2N2CCC3(CC2)CC3)n1 [Example 109, 3-(6-azaspiro[2.5]oct-6-yl)-5-((1-(hydroxymethyl)cyclopropyl)amino)-N-(6-((2-methyl-2-propanyl)sulfamoyl)-2-pyridinyl)-2-pyrazinecarboxamide]  79.3 nM
10. C[C@@H]1CN(c2cccc(NC(=O)c3ncc(NC(C)(C)CO)nc3N3CCC4(CC3)CC4)n2)CCO1 [Example 104, (R)-5-((1-hydroxy-2-methylpropan-2-yl)amino)-N-(6-(2-methylmorpholino)pyridin-2-yl)-3-(6-azaspiro[2.5]octan-6-yl)pyrazine-2-carboxamide]  83.4 nM
11. CC(C)(CO)Nc1ccc(C(=O)Nc2cccc(N3C[C@@H]4C[C@H]3CO4)n2)c(N2CCC3(CC2)CC3)n1 (racemic) [Example 151, N-(6-((1S,4S)-2-oxa-5-azabicyclo[2.2.1]heptan-5-yl)pyridin-2-yl)-6-((1-hydroxy-2-methylpropan-2-yl)amino)-2-(6-azaspiro[2.5]octan-6-yl)nicotinamide]  90.5 nM
12. C[C@@H]1CN(c2cccc(NC(=O)c3ccc(S(=O)(=O)NC(C)(C)C)nc3N3CCC4(CC3)CC4)n2)CCO1 [Example 225, 2-(6-azaspiro[2.5]octan-6-yl)-N-(6-((2R)-2-methyl-4-morpholinyl)-2-pyridinyl)-6-((2-methyl-2-propanyl)sulfamoyl)-3-pyridinecarboxamide]  102 nM
13. CC(CO)(CO)Nc1cnc(C(=O)Nc2cccc(N3CCOCC3)n2)c(N2CCC3(CC2)CC3)n1 [Example 115, 3-(6-azaspiro[2.5]octan-6-yl)-5-((1,3-dihydroxy-2-methyl-2-propanyl)amino)-N-(6-(4-morpholinyl)-2-pyridinyl)-2-pyrazinecarboxamide]  106 nM
14. CC(C)(CO)Nc1ccc(C(=O)Nc2cc(C#N)cc(N3CCOCC3)n2)c(N2CCC3(CC2)CC3)n1 [Example 156, 2-(6-azaspiro[2.5]octan-6-yl)-N-(4-cyano-6-(4-morpholinyl)-2-pyridinyl)-6-((1-hydroxy-2-methyl-2-propanyl)amino)-3-pyridinecarboxamide]  116 nM
15. C[C@H]1CCN(c2cccc(NC(=O)c3ncc(NC(C)(C)CO)nc3N3CCC4(CC3)CC4)n2)C1 [Example 105, 3-(6-azaspiro[2.5]oct-6-yl)-5-((1-hydroxy-2-methyl-2-propanyl)amino)-N-(6-((3S)-3-methyl-1-pyrrolidinyl)-2-pyridinyl)-2-pyrazinecarboxamide]  122 nM
16. C[C@H]1COCCN1c1cccc(NC(=O)c2ccc(NC(C)(C)CO)nc2N2CCC3(CC2)CC3)n1 [Example 183, 2-(6-azaspiro[2.5]octan-6-yl)-6-((1-hydroxy-2-methyl-2-propanyl)amino)-N-(6-((3S)-3-methyl-4-morpholinyl)-2-pyridinyl)-3-pyridinecarboxamide]  205 nM
17. COCC(C)(CO)Nc1ccc(C(=O)Nc2cccc(N3CCO[C@H](C)C3)n2)c(N2CCC3(CC2)CC3)n1 (stereo partly drawn) [Example 217, 6-((1-hydroxy-3-methoxy-2-methylpropan-2-yl)amino)-N-(6-((R)-2-methylmorpholino)pyridin-2-yl)-2-(6-azaspiro[2.5]octan-6-yl)nicotinamide]  222 nM
18. CC(C)(CCO)Nc1ccc(C(=O)Nc2cccc(N3CCO[C@H](CO)C3)n2)c(N2CCC3(CC2)CC3)n1 [Example 210, 2-(6-azaspiro[2.5]octan-6-yl)-6-((4-hydroxy-2-methyl-2-butanyl)amino)-N-(6-((2S)-2-(hydroxymethyl)-4-morpholinyl)-2-pyridinyl)-3-pyridinecarboxamide]  239 nM
19. CC(C)C1CN(c2cccc(NC(=O)c3ccc(NC(C)(C)CO)nc3N3CCC4(CC3)CC4)n2)CCO1 (stereo not shown) [Example 203, 6-((1-hydroxy-2-methylpropan-2-yl)amino)-N-(6-(2-isopropylmorpholino)pyridin-2-yl)-2-(6-azaspiro[2.5]octan-6-yl)nicotinamide]  242 nM
20. C[C@@H]1CO[C@@H](C)CN1c1cccc(NC(=O)c2ccc(NC(C)(C)CO)nc2N2CCC3(CC2)CC3)n1 (racemic) [Example 187, N-(6-((2S,5R)-2,5-dimethylmorpholino)pyridin-2-yl)-6-((1-hydroxy-2-methylpropan-2-yl)amino)-2-(6-azaspiro[2.5]octan-6-yl)nicotinamide]  252 nM
21. CC(C)(CO)Nc1ccc(C(=O)Nc2cccc(-c3ncco3)n2)c(N2CCC3(CC2)CC3)n1 [Example 122, 2-(6-azaspiro[2.5]oct-6-yl)-6-((2-hydroxy-1,1-dimethylethyl)amino)-N-(6-(1,3-oxazol-2-yl)-2-pyridinyl)-3-pyridinecarboxamide]  316 nM
22. COc1cc(NC(=O)c2ccc(NC(C)(C)CO)nc2N2CCC3(CC2)CC3)nc(N2CCOCC2)c1 [Example 158, 2-(6-azaspiro[2.5]octan-6-yl)-6-((1-hydroxy-2-methyl-2-propanyl)amino)-N-(4-methoxy-6-(4-morpholinyl)-2-pyridinyl)-3-pyridinecarboxamide]  402 nM
23. CC1(C)OCC(c2ccc(C(=O)Nc3cccc(N4CCOCC4)n3)c(N3CCC4(CC3)CC4)n2)(C(F)(F)F)O1 (stereo not shown) [Example 180, 6-(2,2-dimethyl-4-(trifluoromethyl)-1,3-dioxolan-4-yl)-N-(6-morpholinopyridin-2-yl)-2-(6-azaspiro[2.5]octan-6-yl)nicotinamide]  758 nM
24. CNC1CCCN(c2cccc(NC(=O)c3ccc(NC(C)(C)CO)nc3N3CCC4(CC3)CC4)n2)C1 (stereo not shown) [Example 233, 6-((1-hydroxy-2-methylpropan-2-yl)amino)-N-(6-(3-(methylamino)piperidin-1-yl)pyridin-2-yl)-2-(6-azaspiro[2.5]octan-6-yl)nicotinamide]  999 nM
25. CC1(C)COC(=O)N1c1cccc(NC(=O)c2ccc(N3C(=O)OCC3(C)C)nc2N2CCC3(CC2)CC3)n1 [Example 161, 2-(6-azaspiro[2.5]octan-6-yl)-6-(4,4-dimethyl-2-oxo-1,3-oxazolidin-3-yl)-N-(6-(4,4-dimethyl-2-oxo-1,3-oxazolidin-3-yl)-2-pyridinyl)-3-pyridinecarboxamide]  2190 nM
